# Reference: patent US11661398B2, “Cellular transport system for transferring a sulfonic acid construct carrying a cargo into the cytoplasm of a cell” (Scientist of Fortune, S.A., priority 2017, dated 2023)
# Structures can show the parent of a compound that is named as a salt.
# Key:
# PnGGT* P505T = experiment: Sulfobutanoyl-p-nitroanilide hydrolysis kinetics; assay type: biochemical, Pseudomonas nitroreducens; conditions: 50 mM Tris/HCl (pH 7.0)
# Description: FIG. 31. Sulfobutanoyl-p-nitroanilide hydrolysis kinetics of PnGGT* P505T. The kinetic parameters of PnGGT* P505T were determined in 50 mM Tris/HCl (pH 7.0) with the substrate sulfobutanoyl-p-nitroanilide added to the following concentrations: 50, 100, 250, 500, 750, 1000, 1500 and 2000 μM. […] Fitting of the kinetic data was performed with SigmaPlot v.12.2. Dots represent the average of three independent measurements with standard deviations shown as error bars.
# (§1) For the experiments relating to the sulfonate based synthetic transport system, purification of PnGGT ΔN24 and PnGGT ΔN24 D405N containing an N-terminal 6×His-tag was performed according to previous reports (Van Dyke et al., 1992) using Ni-NTA Superflow (Qiagen, Hilden, Germany). For kinetic studies, PnGGT variants were purified with the aid of the 6×His-tag located at the N-terminal end of the large subunit following the same procedure. To exchange the buffer, purified proteins were dialyzed against 50 mM Tris/HCl (pH 7.0).
# BW25113 ΔleuB (TK080) = experiment: Growth on different sulfur sources; assay type: cell-based, E. coli; conditions: 1 mM sulfur source, minimal medium, 0.5% glucose, 0.4 mM leucine
# Description: FIG. 21: Growth of E. coli on sulfonates. Strains TK080 (a; BW25113 ΔleuB) and TK082 (b; BW25113 ΔleuB ΔssuEADCB ΔtauD) were grown in MS minimal medium supplemented with 0.5% glucose, 0.4 mM L-leucine, 1 mM MgCl2 and 1 mM of a sulfur source. TK080 was able to use the majority of the tested sulfur sources with a similar efficiency as sulfate. […] Dots represent the average of three independent measurements with standard deviations shown as error bars.
# For the experiments relating to the sulfonate based synthetic transport system, unless stated otherwise, growth experiments in selective medium were carried out in sulfur free MS minimal medium (4 mM citric acid, 1 mM MgCl2, 20 mM NH4Cl, 50 mM KH2PO4 and 1×NTA mix (10 μM nitrilotriacetic acid, 3 μM CaCl2, 3 μM FeCl3, 1 μM MnCl2, 0.3 μM ZnCl2, 0.3 μM H3B3, 0.3 μM CrC3, 0.3 μM COCl2, 0.3 μM CuCl2, 0.3 μM Ni2C, 0.3 μM Na2MoO4, 0.3 μM Na2SeO3)) supplemented with 0.5% glucose. MgSO4 (1 mM), MgCl2 (1 mM), L-leucine (0.4 mM), IPTG (0.5 mM), aTc (100 ng mL-1), nicotinic acid (various concentrations), 3-picolylamine (various concentrations) and sulfonates (various concentrations) as indicated in the text. […] Synthesis schemes for sulfobutanoyl-p-nitroanilide and other sulfonates are given below.
# The sulfonate transporters SsuABC and TauABC transport a wide variety of sulfonate compounds (Eichhorn et al., 2000) and can thus be exploited for the present synthetic transport system. As such, the uptake and utilization of sulfobutanoyl-L-leucine was assessed. The leucine auxotrophic strain BW25113 ΔleuB was tested for growth in minimal medium supplemented with 0.5% glucose, 0.4 mM leucine, 0.4 mM isoleucine and 1 mM of a sulfur-containing compound as the sole sulfur source.
# EcGGT ΔN24 D433N = target: T1, EcGGT ΔN24 D433N (Escherichia coli, UniProt P18956, D433N); experiment: Colorimetric GGT assay in whole cell lysates; assay type: biochemical, E. coli; conditions: whole cell lysate, 4 mM substrate, 50 mM Tris-HCl (pH 9.0), 410 nm
# T1 construct: made in house; host or cells: E. coli (pACT3 plasmid); assayed in whole cell lysate
# T1 sequence (P18956 25-390): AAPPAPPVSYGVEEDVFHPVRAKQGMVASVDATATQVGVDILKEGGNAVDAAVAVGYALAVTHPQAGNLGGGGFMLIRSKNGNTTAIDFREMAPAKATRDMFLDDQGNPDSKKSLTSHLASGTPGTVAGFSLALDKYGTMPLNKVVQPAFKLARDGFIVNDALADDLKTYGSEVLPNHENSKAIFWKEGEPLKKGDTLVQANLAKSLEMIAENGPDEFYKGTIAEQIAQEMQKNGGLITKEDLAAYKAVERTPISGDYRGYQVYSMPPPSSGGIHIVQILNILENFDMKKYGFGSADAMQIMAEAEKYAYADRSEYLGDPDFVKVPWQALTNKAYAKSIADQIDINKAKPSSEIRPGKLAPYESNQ
# T1 sequence (P18956 391-580 D433N): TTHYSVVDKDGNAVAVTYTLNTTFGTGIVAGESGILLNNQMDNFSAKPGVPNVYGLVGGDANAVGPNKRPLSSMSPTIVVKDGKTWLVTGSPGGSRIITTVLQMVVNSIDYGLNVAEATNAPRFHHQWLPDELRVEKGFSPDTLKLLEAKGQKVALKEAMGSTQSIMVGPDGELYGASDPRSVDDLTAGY
# Description: To test for the desired activity a colorimetric enzyme assay was chosen and the substrate sulfobutanoyl-p-nitroanilide was synthesized for this purpose. Hydrolysis of this colorless substrate by a GGT variant into sulfobutanoic acid and the yellow dye 4-nitroaniline can be quantified photometrically at 410 nm. For that, cytoplasmic GGT variants containing an N-terminal 6×His-tag were first expressed from E. coli (EcGGT ΔN24) and Pseudomonas nitroreducens (PnGGT ΔN24), as well as EcGGT ΔN24 D433N and the corresponding mutant variant PnGGT ΔN24 D405N. Position D405 of PnGGT was identified to fulfill the same function as position D433 of EcGGT by sequence alignment and homology modeling between EcGGT and PnGGT. Then the ability of whole cell lysates containing the respective enzymes was tested to hydrolyze L-glutamic acid γ-(3-carboxy-4-nitroanilide) or sulfobutanoyl-p-nitroanilide.
# PnGGT ΔN24 D405N = target: T2, PnGGT ΔN24 D405N (Pseudomonas nitroreducens, UniProt E0D5C2, D405N); experiment: Kinetic measurements with purified PnGGT ΔN24 D405N; assay type: biochemical; conditions: purified enzyme, 50 mM Tris-HCl (pH 9.0)
# T2 sequence (E0D5C2 with tags, fused parts or gaps D405N): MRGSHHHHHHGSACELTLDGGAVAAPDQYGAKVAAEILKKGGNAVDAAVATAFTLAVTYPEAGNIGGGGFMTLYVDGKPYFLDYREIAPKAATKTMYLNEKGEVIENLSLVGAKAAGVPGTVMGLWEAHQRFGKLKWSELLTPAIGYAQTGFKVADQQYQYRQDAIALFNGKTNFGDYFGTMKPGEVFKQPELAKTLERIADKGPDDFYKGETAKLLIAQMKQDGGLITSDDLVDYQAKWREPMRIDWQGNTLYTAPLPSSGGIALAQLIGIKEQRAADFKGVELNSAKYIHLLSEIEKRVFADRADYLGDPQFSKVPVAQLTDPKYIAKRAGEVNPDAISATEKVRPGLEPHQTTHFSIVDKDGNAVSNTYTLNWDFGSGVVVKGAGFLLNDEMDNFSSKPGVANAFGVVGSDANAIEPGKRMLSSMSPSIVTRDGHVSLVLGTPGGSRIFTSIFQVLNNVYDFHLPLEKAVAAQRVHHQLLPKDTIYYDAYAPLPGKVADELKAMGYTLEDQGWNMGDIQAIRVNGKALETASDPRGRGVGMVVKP
# Description: as §1
# To determine the kinetic parameters of PnGGT ΔN24 and PnGGT ΔN24 D405N the purified enzymes were preincubated in 50 mM Tris-HCl (pH 9.0). To start the reaction, varying concentrations of the substrates L-glutamic acid γ-(3-carboxy-4-nitroanilide) or sulfobutanoyl-p-nitroanilide were added to the mixtures. The results were evaluated using GraphPad Prism (GraphPad Software, La Jolla, Calif., USA).
smiles,measurement,setting,value
O=C(CCCS(=O)(=O)O)Nc1ccc([N+](=O)[O-])cc1 [sodium salt],improvement of catalytic efficiency (kcat/KM) over PnGGT*,PnGGT* P505T,39%
same,improvement of kcat over PnGGT*,PnGGT* P505T,8%
same,lower K (KM) over PnGGT*,PnGGT* P505T; 50-2000 μM substrate,27%
same,growth with compound as sole sulfur source,BW25113 ΔleuB (TK080),comparable to growth on other sulfonates
same,hydrolysis of substrate,EcGGT ΔN24 D433N,acquired the ability to hydrolyze
same,Km,PnGGT ΔN24 D405N,767 µM
same,Vmax,PnGGT ΔN24 D405N,10.35 ± 0.28 µmol/min/mg
same,kcat,PnGGT ΔN24 D405N,10.2 s⁻¹
